Patent publication US20060030623A1, “Agent for the treatment or prevention of diabetes, obesity or arteriosclerosis” (priority 2004, published 2006)

Assays:
[1] = Solubility in water; type: physicochemical; details: general statement, no test described
[2] = Visceral fat-decreasing effect: fat weight by X ray CT in rats on high fat diet; type: in vivo; details: SD rats, 35% (w/w) high fat diet with 0.029% (w/w) Compound (1), 3 months
From the text: SD rats (Charles River Japan, Inc.) aged 8 weeks were used in the test. Animals acclimated to feeding with 35% (w/w) high fat diet for 1 week were grouped into 2 groups, i.e. a control group and a group treated with Compound (1), for the test. Animals in the control group received the 35% (w/w) high fat diet, and those in the Compound (1) group received the diet prepared by adding Compound (1) to 0.029% (w/w) of the 35% (w/w) high fat diet, for 3 months. Tap water was available ad libitum to the animals in the test.
Fat weight was determined 3 months later with an X ray CT scanner for laboratory animals (Aloka).

[3] = Antidiabetic effect: plasma parameters in KKAy mice after 14 days of Compound (1) in diet; type: in vivo, mouse (male KKAy, genetically diabetic, insulin-resistant); details: blood on day 15; for Free fatty acid / Insulin / Neutral fat: plasma
From the text: Male KKAy mice (Clea Japan, Inc.) aged 7 weeks which are genetically diabetic (insulin-resistant) were used in the test. Blood was previously collected from the orbital venous plexus of animals acclimated to feeding with normal powdered diet (CRF-1, Oriental Yeast, Co., Ltd.), and then the animals were grouped into 5 groups containing 6 animals each so that there might be no intergroup difference with respect to plasma parameters (neutral fat value, free fatty acid value, insulin value, blood sugar level). Compound (1) was added to the powdered diet so that the concentration in the diet might be 1, 3, 10, and 30 mg/kg/day. The animals were allowed to take the diet ad libitum for 14 days, and blood was collected again from the orbital venous plexus in the morning on day 15 for the measurement of the above-mentioned plasma parameters.

[4] = Anti-arteriosclerosis effect: lipid-stained area of aorta in rabbits on high fat diet; type: in vivo, Japanese white rabbits; details: rabbit aorta, lipid stain, high fat diet 100 g/day, 12 weeks
From the text: Japanese white rabbits (Kitayama Labes., Co Ltd.) aged 9 weeks were used in the test. Blood was collected from the auricular artery of animals acclimated to feeding with high fat diet (RC-4 containing 0.3% cholesterol and 3% peanut oil, Oriental Yeast, Co., Ltd.), and then the animals were grouped into 4 groups containing 12 animals each so that there might be no intergroup difference with respect to body weight and parameters in plasma (neutral fat value, total cholesterol value, HDL cholesterol value). Compound (1) was added to the high fat diet so that the intake of Compound (1) might be 3, 10, and 30 mg/kg/100 g diet/day. The animals were allowed to take the diet restricted to 100 g diet/day for 12 weeks, lipid of the aorta was stained, and the stained region was defined as the arteriosclerotic region. The percentage of area of the arteriosclerotic region was calculated according to the equation below.

[5] = Anti-obesity effect: body weight and gain in rabbits on high fat diet; type: in vivo, Japanese white rabbits; details: high fat diet restricted to 100 g/day, after 12 weeks
From the text: Japanese white rabbits (Kitayama Labes., Co Ltd.) aged 9 weeks were used in the test. Blood was collected from the auricular artery of animals acclimated to feeding with high fat diet (RC-4 containing 0.3% cholesterol and 3% peanut oil, supplied by Oriental Yeast, Co., Ltd.), and then the animals were grouped into 4 groups containing 12 animals each so that there might be no intergroup difference with respect to body weight and plasma parameters (neutral fat value, total cholesterol value, HDL cholesterol value). Compound (1) was added to the high fat diet so that the intake of Compound (1) might be 3, 10, and 30 mg/kg/100 g diet/day. The animals were given the diet restricted to 100 g diet/day for 12 weeks, and body weight and its gain were determined after the 12 weeks.

CCOC(=O)C(COC(=O)Cc1ccc(NC(=O)c2ccccc2-c2ccc(C(F)(F)F)cc2)c(C(=O)N(C)C)c1)(C(=O)OCC)c1ccccc1 [Compound (1), 2-(2-{3-dimethylcarbamoyl-4-[(4′-trifluoromethyl-biphenyl-2-carbonyl)amino]phenyl}acetoxymethyl)-2-phenylmalonic acid diethyl ester]
Solubility in water [1]: slightly soluble or insoluble in water | Muscle weight [2]: 204.4 g | Subcutaneous fat weight [2]: 14.9 g | Visceral fat weight [2]: 28.8 g | Blood sugar ([3]; 1 mg/kg/day in diet): 413 ± 34.9 mg/dL | Blood sugar ([3]; 3 mg/kg/day in diet): 516 ± 14.9 mg/dL | Blood sugar ([3]; 10 mg/kg/day in diet): 405 ± 36.8 mg/dL | Blood sugar ([3]; 30 mg/kg/day in diet): 331 ± 39.6 mg/dL | Free fatty acid ([3]; 1 mg/kg/day in diet): 353 ± 15.9 µEq/l | Insulin ([3]; 1 mg/kg/day in diet): 117 ± 14.0 ng/mL | Neutral fat ([3]; 1 mg/kg/day in diet): 676 ± 57.2 mg/dL | Free fatty acid ([3]; 3 mg/kg/day in diet): 293 ± 11.7 µEq/l | Insulin ([3]; 3 mg/kg/day in diet): 103 ± 10.5 ng/mL | Neutral fat ([3]; 3 mg/kg/day in diet): 716 ± 79.9 mg/dL | Free fatty acid ([3]; 10 mg/kg/day in diet): 235 ± 24.9 µEq/l | Insulin ([3]; 10 mg/kg/day in diet): 102 ± 11.3 ng/mL | Neutral fat ([3]; 10 mg/kg/day in diet): 545 ± 53.1 mg/dL | Free fatty acid ([3]; 30 mg/kg/day in diet): 171 ± 17.4 µEq/l | Insulin ([3]; 30 mg/kg/day in diet): 67 ± 10.4 ng/mL | Neutral fat ([3]; 30 mg/kg/day in diet): 298 ± 21.0 mg/dL | Percentage of area of arteriosclerotic region ([4]; 3 mg/kg/day): 28.4% | Percentage of area of arteriosclerotic region ([4]; 10 mg/kg/day): 7.7% | Percentage of area of arteriosclerotic region ([4]; 30 mg/kg/day): 0.15% | Body weight ([5]; 3 mg/kg/day): 3122.1 g | Body weight gain ([5]; 3 mg/kg/day): 1176.0 g | Body weight ([5]; 10 mg/kg/day): 2997.1 g | Body weight gain ([5]; 10 mg/kg/day): 1065.9 g | Body weight ([5]; 30 mg/kg/day): 2969.0 g | Body weight gain ([5]; 30 mg/kg/day): 1025.4 g
